Measured values published in patent US8808992B2, “SHOC2 mutations causing noonan-like syndrome with loose anagen hair” (Icahn School of Medicine at Mount Sinai, priority 2009, dated 2014).

Target: T1, NMT (Homo sapiens, UniProt P30419)
T1 construct: host or cells: Cos-1
T1 sequence (P30419 1-496): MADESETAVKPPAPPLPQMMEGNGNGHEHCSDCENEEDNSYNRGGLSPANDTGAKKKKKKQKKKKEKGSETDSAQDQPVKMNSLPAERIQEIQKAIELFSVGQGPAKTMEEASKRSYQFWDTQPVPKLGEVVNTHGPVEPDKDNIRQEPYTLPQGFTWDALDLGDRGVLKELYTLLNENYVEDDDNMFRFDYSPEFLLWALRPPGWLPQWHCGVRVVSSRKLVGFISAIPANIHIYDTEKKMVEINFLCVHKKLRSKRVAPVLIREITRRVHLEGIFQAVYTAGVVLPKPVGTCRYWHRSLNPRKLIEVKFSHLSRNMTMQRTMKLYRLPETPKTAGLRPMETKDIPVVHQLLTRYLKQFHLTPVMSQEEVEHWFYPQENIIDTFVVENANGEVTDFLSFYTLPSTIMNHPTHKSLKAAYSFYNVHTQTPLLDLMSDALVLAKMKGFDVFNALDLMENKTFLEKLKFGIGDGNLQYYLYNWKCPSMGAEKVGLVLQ
Test: Membrane targeting of V5-tagged SHOC2^S2G in Cos-1 cells treated with an NMT inhibitor (confocal laser scanning microscopy)
Assay type: cell-based, African green monkey
Description: FIG. 8. Myristoylation is required for membrane targeting of the SHOC2^S2G mutant. […] Confocal laser scanning microscopy was performed using anti-V5 monoclonal antibody, followed by Alexa Fluor-594 goat anti-mouse antibody (red), while actin cytoskeleton was detected by Alexa Fluor 488-phalloidin (green). Nuclei are visualized by DAPI staining (blue). Co-localization areas were detected in yellow. Images represent single optical sections representative of >50 transfected cells observed in each experiment. Bars indicate 20 μm.
N-myristoylation facilitates anchoring of proteins to intracellular membranes. To explore whether it conferred membrane targeting to mutant SHOC2, the subcellular localization of tagged SHOC2 proteins was analyzed in Cos-1 cells (FIG. 2b and FIG. 6). Confocal laser microscopy analysis documented that SHOC2^wt was uniformly distributed in the cytoplasm and nucleus in starved cells but was restricted to the nucleus following EGF stimulation, implying an unexpected role for this protein in signal transduction. […]
In silico analysis of protein N-myristoylation was performed using Myristoylator (http://www.expasy.org/tools/myristoylator/), TermiNator (http://www.isv.cnrs-gif.fr/terminator3/index.html) and NMT (http.//mendel.imp.ac.at/sat/myristate/index.html) software. […] N-myristoylation was evaluated by [^3H]myristic acid (30 μCi/ml) incorporation as described elsewhere^26. […]

membrane targeting of V5-tagged SHOC2^S2G (Cos-1 cells treated with 200 μM (middle) and 300 μM (bottom), compared with untreated cells): progressively lost | SHOC2^S2G's membrane localization (Cos-1 cells, treatment at varying doses (FIG. 8)): reduced or abolished
Compound: CCCCCCCCCCCCC(O)C(=O)O (centres unmarked) [2-hydroxymyristic acid]
